The source of these data is patent publication US20230365592A1 (Agios Pharmaceuticals, Inc., priority 2022, published 2023).

Where only a bound is given, the exact number is not on record here.

As a reminder, the AC50 is the midpoint of the concentration-response curve, whichever way the signal moves.

The test addresses T1, human PAH with the R408W mutation (Homo sapiens, UniProt P00439, R408W).
T1 construct: expressed in transfected cells
T1 sequence (P00439 1-452 R408W): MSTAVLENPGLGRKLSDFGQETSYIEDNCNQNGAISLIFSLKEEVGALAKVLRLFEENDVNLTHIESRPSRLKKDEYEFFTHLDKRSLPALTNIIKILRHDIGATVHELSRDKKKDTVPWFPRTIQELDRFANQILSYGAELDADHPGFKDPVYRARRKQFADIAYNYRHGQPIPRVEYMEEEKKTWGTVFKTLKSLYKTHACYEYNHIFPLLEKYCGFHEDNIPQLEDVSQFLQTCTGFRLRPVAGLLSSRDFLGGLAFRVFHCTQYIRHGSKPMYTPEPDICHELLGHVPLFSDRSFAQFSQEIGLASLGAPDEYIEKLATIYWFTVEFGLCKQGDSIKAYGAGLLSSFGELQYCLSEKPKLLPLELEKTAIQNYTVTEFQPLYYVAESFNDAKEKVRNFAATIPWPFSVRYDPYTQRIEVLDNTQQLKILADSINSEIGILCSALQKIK
Kind of test: Cell Based Phenylalanine Flux Assay.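 Further: after compound treatment, cells received sepiapterin plus isotope-labelled Phenylalanine for 4 hours, then labelled Tyrosine in the medium was quantified, 10-point 2-fold dilution series run in duplicate.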 Particulars: A375 cells expressing human R408W PAH; 24 hrs compound incubation; 13C-Tyrosine by LC-MS; average where tested multiple times; read-out: AC50.
Take `Cc1cccn2nc([C@H]3c4nc[nH]c4CCN3C(=O)c3nnc(-c4ncccn4)o3)cc12` [Example 1310, (R)-(4-(4-methylpyrazolo[1,5-a]pyridin-2-yl)-6,7-dihydro-1H-imidazo[4,5-c]pyridin-5(4H)-yl)(5-(pyrimidin-2-yl)-1,3,4-oxadiazol-2-yl)methanone]: the half-maximal activity concentration (AC50) lay in the range of 1000 to 5000 nM.

For `Cc1cccn2nc([C@@H]3c4nc[nH]c4CCN3C(=O)c3nnc(-c4ncccn4)o3)cc12` [Example 1311, (S)-(4-(4-methylpyrazolo[1,5-a]pyridin-2-yl)-6,7-dihydro-1H-imidazo[4,5-c]pyridin-5(4H)-yl)(5-(pyrimidin-2-yl)-1,3,4-oxadiazol-2-yl)methanone], the AC50 was 500 to 1000 nM. For `O=C(c1nnc(-c2ncccn2)o1)N1CCc2[nH]cnc2[C@@H]1c1cc2c(F)cccn2n1` [Example 1312, (R)-(4-(4-fluoropyrazolo[1,5-a]pyridin-2-yl)-6,7-dihydro-1H-imidazo[4,5-c]pyridin-5(4H)-yl)(5-(pyrimidin-2-yl)-1,3,4-oxadiazol-2-yl)methanone] the value was 1000 to 5000 nM; for `O=C(c1nnc(-c2ncccn2)o1)N1CCc2[nH]cnc2[C@H]1c1cc2c(F)cccn2n1` [Example 1313, (S)-(4-(4-fluoropyrazolo[1,5-a]pyridin-2-yl)-6,7-dihydro-1H-imidazo[4,5-c]pyridin-5(4H)-yl)(5-(pyrimidin-2-yl)-1,3,4-oxadiazol-2-yl)methanone], 500 to 1000 nM; for `Cn1cc(-c2nnc(C(=O)N3CCc4[nH]cnc4[C@H]3c3cc4c(C(F)F)cccn4n3)o2)cn1` [Example 1316, (S)-(4-(4-(difluoromethyl)pyrazolo[1,5-a]pyridin-2-yl)-6,7-dihydro-1H-imidazo[4,5-c]pyridin-5(4H)-yl)(5-(1-methyl-1H-pyrazol-4-yl)-1,3,4-oxadiazol-2-yl)methanone], under 500 nM. Turning to `Cn1cc(-c2nnc(C(=O)N3CCc4[nH]cnc4[C@@H]3c3cc4c(C(F)F)cccn4n3)o2)cn1` [Example 1317, (R)-(4-(4-(difluoromethyl)pyrazolo[1,5-a]pyridin-2-yl)-6,7-dihydro-1H-imidazo[4,5-c]pyridin-5(4H)-yl)(5-(1-methyl-1H-pyrazol-4-yl)-1,3,4-oxadiazol-2-yl)methanone], the AC50 lay in the range of 1000 to 5000 nM. Regarding `Cc1cccc2cc([C@@H]3c4nc[nH]c4CCN3C(=O)c3nnc(C4(C)CC4)o3)nn12` [Example 1319, (S)-(5-(1-methylcyclopropyl)-1,3,4-oxadiazol-2-yl)(4-(7-methylpyrazolo[1,5-a]pyridin-2-yl)-6,7-dihydro-1H-imidazo[4,5-c]pyridin-5(4H)-yl)methanone], the AC50 is under 500 nM. In the case of `CC1(c2nnc(C(=O)N3CCc4[nH]cnc4[C@@H]3c3cc4c(Cl)cccn4n3)o2)CC1` [Example 1320, (R)-(4-(4-chloropyrazolo[1,5-a]pyridin-2-yl)-6,7-dihydro-1H-imidazo[4,5-c]pyridin-5(4H)-yl)(5-(1-methylcyclopropyl)-1,3,4-oxadiazol-2-yl)methanone] it was 1000 to 5000 nM; in that of `CC1(c2nnc(C(=O)N3CCc4[nH]cnc4[C@H]3c3cc4c(Cl)cccn4n3)o2)CC1` [Example 1321, (S)-(4-(4-chloropyrazolo[1,5-a]pyridin-2-yl)-6,7-dihydro-1H-imidazo[4,5-c]pyridin-5(4H)-yl)(5-(1-methylcyclopropyl)-1,3,4-oxadiazol-2-yl)methanone], under 500 nM.

Take `Cc1cccn2nc([C@H]3c4nc[nH]c4CCN3C(=O)c3nnc(C4(C)CC4)o3)cc12` [Example 1322, (R)-(5-(1-methylcyclopropyl)-1,3,4-oxadiazol-2-yl)(4-(4-methylpyrazolo[1,5-a]pyridin-2-yl)-6,7-dihydro-1H-imidazo[4,5-c]pyridin-5(4H)-yl)methanone]: the AC50 was 1000 to 5000 nM. In the case of `Cc1cccn2nc([C@@H]3c4nc[nH]c4CCN3C(=O)c3nnc(C4(C)CC4)o3)cc12` [Example 1323, (S)-(5-(1-methylcyclopropyl)-1,3,4-oxadiazol-2-yl)(4-(4-methylpyrazolo[1,5-a]pyridin-2-yl)-6,7-dihydro-1H-imidazo[4,5-c]pyridin-5(4H)-yl)methanone] it was under 500 nM.

As to `CC1(c2nnc(C(=O)N3CCc4[nH]cnc4[C@@H]3c3cc4c(C(F)(F)F)cccn4n3)o2)CC1` [Example 1324, (R)-(5-(1-methylcyclopropyl)-1,3,4-oxadiazol-2-yl)(4-(4-(trifluoromethyl)pyrazolo[1,5-a]pyridin-2-yl)-6,7-dihydro-1H-imidazo[4,5-c]pyridin-5(4H)-yl)methanone], the half-maximal activity concentration (AC50) fell in the range of 1000 to 5000 nM.

In the case of `CC1(c2nnc(C(=O)N3CCc4[nH]cnc4[C@H]3c3cc4c(C(F)(F)F)cccn4n3)o2)CC1` [Example 1325, (S)-(5-(1-methylcyclopropyl)-1,3,4-oxadiazol-2-yl)(4-(4-(trifluoromethyl)pyrazolo[1,5-a]pyridin-2-yl)-6,7-dihydro-1H-imidazo[4,5-c]pyridin-5(4H)-yl)methanone], the AC50 was under 500 nM. For `Cc1ncccc1-c1nnc(C(=O)N2CCc3[nH]cnc3[C@H]2c2cc3c(F)cccn3n2)o1` [Example 1328, (S)-(4-(4-fluoropyrazolo[1,5-a]pyridin-2-yl)-6,7-dihydro-1H-imidazo[4,5-c]pyridin-5(4H)-yl)(5-(2-methylpyridin-3-yl)-1,3,4-oxadiazol-2-yl)methanone] the value was under 500 nM; for `Cc1ncccc1-c1nnc(C(=O)N2CCc3[nH]cnc3[C@H]2c2cc3c(C)cccn3n2)o1` [Example 1330, (S)-(4-(4-methylpyrazolo[1,5-a]pyridin-2-yl)-6,7-dihydro-1H-imidazo[4,5-c]pyridin-5(4H)-yl)(5-(2-methylpyridin-3-yl)-1,3,4-oxadiazol-2-yl)methanone], under 500 nM. For `Cc1ncccc1-c1nnc(C(=O)N2CCc3[nH]cnc3[C@@H]2c2cc3c(C)cccn3n2)o1` [Example 1331, (R)-(4-(4-methylpyrazolo[1,5-a]pyridin-2-yl)-6,7-dihydro-1H-imidazo[4,5-c]pyridin-5(4H)-yl)(5-(2-methylpyridin-3-yl)-1,3,4-oxadiazol-2-yl)methanone] the value was 1000 to 5000 nM; for `Cc1ncccc1-c1nnc(C(=O)N2CCc3[nH]cnc3[C@H]2c2cc3cccc(Cl)n3n2)o1` [Example 1334, (S)-(4-(7-chloropyrazolo[1,5-a]pyridin-2-yl)-6,7-dihydro-1H-imidazo[4,5-c]pyridin-5(4H)-yl)(5-(2-methylpyridin-3-yl)-1,3,4-oxadiazol-2-yl)methanone], under 500 nM; for `Cc1ncccc1-c1nnc(C(=O)N2CCc3[nH]cnc3[C@@H]2c2cc3cccc(Cl)n3n2)o1` [Example 1335, (R)-(4-(7-chloropyrazolo[1,5-a]pyridin-2-yl)-6,7-dihydro-1H-imidazo[4,5-c]pyridin-5(4H)-yl)(5-(2-methylpyridin-3-yl)-1,3,4-oxadiazol-2-yl)methanone], over 5000 nM. In the case of `Cc1cccc2cc([C@H]3c4nc[nH]c4CCN3C(=O)c3nnc(-c4ncccn4)o3)nn12` [Example 1336, (R)-(4-(7-methylpyrazolo[1,5-a]pyridin-2-yl)-6,7-dihydro-1H-imidazo[4,5-c]pyridin-5(4H)-yl)(5-(pyrimidin-2-yl)-1,3,4-oxadiazol-2-yl)methanone] it was 1000 to 5000 nM; in that of `Cc1cccc2cc([C@@H]3c4nc[nH]c4CCN3C(=O)c3nnc(-c4ncccn4)o3)nn12` [Example 1337, (S)-(4-(7-methylpyrazolo[1,5-a]pyridin-2-yl)-6,7-dihydro-1H-imidazo[4,5-c]pyridin-5(4H)-yl)(5-(pyrimidin-2-yl)-1,3,4-oxadiazol-2-yl)methanone], 500 to 1000 nM; in that of `Cc1cccc2cc([C@H]3c4nc[nH]c4CCN3C(=O)c3nnc(-c4cnccn4)o3)nn12` [Example 1338, (R)-(4-(7-methylpyrazolo[1,5-a]pyridin-2-yl)-6,7-dihydro-1H-imidazo[4,5-c]pyridin-5(4H)-yl)(5-(pyrazin-2-yl)-1,3,4-oxadiazol-2-yl)methanone], over 5000 nM.

In the case of `Cc1cccc2cc([C@@H]3c4nc[nH]c4CCN3C(=O)c3nnc(-c4cnccn4)o3)nn12` [Example 1339, (S)-(4-(7-methylpyrazolo[1,5-a]pyridin-2-yl)-6,7-dihydro-1H-imidazo[4,5-c]pyridin-5(4H)-yl)(5-(pyrazin-2-yl)-1,3,4-oxadiazol-2-yl)methanone], the AC50 is under 500 nM.

On to `Cc1ncccc1-c1nnc(C(=O)N2CCc3[nH]cnc3[C@H]2c2cc3cccc(C(F)(F)F)n3n2)o1` [Example 1342, (S)-(5-(2-methylpyridin-3-yl)-1,3,4-oxadiazol-2-yl)(4-(7-(trifluoromethyl)pyrazolo[1,5-a]pyridin-2-yl)-6,7-dihydro-1H-imidazo[4,5-c]pyridin-5(4H)-yl)methanone], for which the concentration at half-maximal activity (AC50) was in the range of 500 to 1000 nM. For the compound `Cc1ncccc1-c1nnc(C(=O)N2CCc3[nH]cnc3[C@@H]2c2cc3cccc(C(F)(F)F)n3n2)o1` [Example 1343, (R)-(5-(2-methylpyridin-3-yl)-1,3,4-oxadiazol-2-yl)(4-(7-(trifluoromethyl)pyrazolo[1,5-a]pyridin-2-yl)-6,7-dihydro-1H-imidazo[4,5-c]pyridin-5(4H)-yl)methanone], the AC50 fell in the range of 1000 to 5000 nM. For the compound `COc1ccc(-c2nnc(C(=O)N3CCc4[nH]cnc4[C@H]3c3cc4cccc(C(F)(F)F)n4n3)o2)cn1` [Example 1344, (S)-(5-(6-methoxypyridin-3-yl)-1,3,4-oxadiazol-2-yl)(4-(7-(trifluoromethyl)pyrazolo[1,5-a]pyridin-2-yl)-6,7-dihydro-1H-imidazo[4,5-c]pyridin-5(4H)-yl)methanone], the AC50 lay within 1000 to 5000 nM.
